According to US11000033B2, “Ketone or oxime compound, and herbicide” (NISSAN CHEMICAL CORPORATION, priority 2014, dated 2021):

How the values were obtained:
Assay type in all cases: in vivo
[1] = test system: Echinochloa crus-galli var. crus-galli; test: Test Example 3: herbicidal effect by foliage application, Wagner pot (symbol H); settings: application herbicide amount 320 g/ha
In short: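 Post-emergence, paddy-type test: seedlings 14 d old in shallow-flooded (0.1–0.5 cm) alluvial soil, 25–30 °C greenhouse. Emulsion diluted to target rate, sprayed on leaves. Read-out: visual effect on each species at 3 weeks, per set criteria.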

[2] = test system: directly sowed rice plant; test: Test Example 3: effect on crop by foliage application, Wagner pot (symbol b); settings: application herbicide amount 320 g/ha
In short: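 Alluvial soil in a 1/10000-are Wagner pot was flooded to a water depth of 0.1–0.5 cm. Echinochloa crus-galli var. crus-galli, Leptochloa chinensis, Cyperus difformis and rice were sown into it and grown in a greenhouse at 25–30 °C.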

[3] = test system: Setaria viridis; test: Test Example 4: herbicidal effect by soil treatment (symbol G); settings: application herbicide amount 320 g/ha
In short: (§1)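 Seeds were sown in sterilized diluvial soil, covered with about 1.5 cm of soil, and the soil surface was sprayed with a water-diluted emulsion of the compound at a predetermined rate. Plants grew in a greenhouse at 25° C. to 30° C.; effects were scored visually 3 weeks after application.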

[4] = test system: Apera spica-venti; test: Test Example 4: herbicidal effect by soil treatment (symbol L); settings: application herbicide amount 320 g/ha
In short: as §1

[5] = test system: Stellaria media; test: Test Example 4: herbicidal effect by soil treatment (symbol P); settings: application herbicide amount 320 g/ha
In short: as §1

[6] = test system: soybean; test: Test Example 4: effect on crop by soil treatment (symbol d); settings: application herbicide amount 320 g/ha
In short: (§2)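 Plants are raised in a greenhouse (25° C. to 30° C.) from spot-sown seed, which sits under about 1.5 cm of sterilized diluvial soil in a box shared with weed species.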

[7] = test system: wheat; test: Test Example 4: effect on crop by soil treatment (symbol e); settings: application herbicide amount 320 g/ha
In short: as §2

[8] = test system: rapeseed; test: Test Example 4: effect on crop by soil treatment (symbol g); settings: application herbicide amount 320 g/ha
In short: as §2

[9] = test system: Digitaria ciliaris; test: Test Example 5: herbicidal effect by foliage application, plastic box (symbol F); settings: 320 g/ha, 3 weeks after application
In short: (§3)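 Greenhouse foliar test: seedlings at 14 days, grown 25° C. to 30° C. in sterilized diluvial soil; compound applied as an aqueous dilution of an emulsion; response read 3 weeks after spraying.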

[10] = test system: Avena fatua; test: Test Example 5: herbicidal effect by foliage application, plastic box (symbol I); settings: 320 g/ha, 3 weeks after application
In short: as §3

[11] = test system: Alopecurus myosuroides; test: Test Example 5: herbicidal effect by foliage application, plastic box (symbol J); settings: 320 g/ha, 3 weeks after application
In short: as §3

[12] = test system: Lolium multiflorum Lam.; test: Test Example 5: herbicidal effect by foliage application, plastic box (symbol K); settings: 320 g/ha, 3 weeks after application
In short: as §3

[13] = test system: Apera spica-venti; test: Test Example 5: herbicidal effect by foliage application, plastic box (symbol L); settings: 320 g/ha, 3 weeks after application
In short: as §3

[14] = test system: Chenopodium album; test: Test Example 5: herbicidal effect by foliage application, plastic box (symbol O); settings: 320 g/ha, 3 weeks after application
In short: as §3

[15] = test system: Stellaria media; test: Test Example 5: herbicidal effect by foliage application, plastic box (symbol P); settings: 320 g/ha, 3 weeks after application
In short: as §3

[16] = test system: corn; test: Test Example 5: effect on crop by foliage application, plastic box (symbol c); settings: 320 g/ha, 3 weeks after application
In short: (§4)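 Box culture: sterile diluvial soil, seeds spot-sown, ~1.5 cm cover, raised under glass at 25–30° C.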

[17] = test system: rice plant; test: Test Example 5: effect on crop by foliage application, plastic box (symbol b); settings: 320 g/ha, 3 weeks after application
In short: as §4

| Compound | F: Digitaria ciliaris, herbicidal effect grade [9] | I: Avena fatua, herbicidal effect grade [10] | J: Alopecurus myosuroides, herbicidal effect grade [11] | K: Lolium multiflorum Lam., herbicidal effect grade [12] | L: Apera spica-venti, herbicidal effect grade [13] | O: Chenopodium album, herbicidal effect grade [14] | P: Stellaria media, herbicidal effect grade [15] | c: corn, effect on crop grade [16] | b: directly sowed rice plant, effect on crop grade [17] | other results |
| --- | --- | --- | --- | --- | --- | --- | --- | --- | --- | --- |
| CCON=C(C)CC1CC(O)=C(c2c(C)cc(C)cc2C)C1=O (stereo not shown) [1-003] | 5 (Herbicidal ratio of 90% or more (almost completely withered)) | 5 (Herbicidal ratio of 90% or more (almost completely withered)) | 5 (Herbicidal ratio of 90% or more (almost completely withered)) | 5 (Herbicidal ratio of 90% or more (almost completely withered)) | 5 (Herbicidal ratio of 90% or more (almost completely withered)) | 3 (Herbicidal ratio of 40% or higher and lower than 70%) | 2 (Herbicidal ratio of 20% or higher and lower than 40%) | 5 (Herbicidal ratio of 90% or more (almost completely withered)) | 5 (Herbicidal ratio of 90% or more (almost completely withered)) | herbicidal effect on H (Echinochloa crus-galli var. crus-galli), grade 0-5 [1]: 5 (Herbicidal ratio of 90% or more (almost completely withered)); effect on crop b (directly sowed rice plant), grade 0-5 [2]: 5 (Herbicidal ratio of 90% or more (almost completely withered)); G (Setaria viridis) herbicidal effect grade [3]: 3 (Herbicidal ratio of 40% or higher and lower than 70%); L (Apera spica-venti) herbicidal effect grade [4]: 5 (Herbicidal ratio of 90% or more (almost completely withered)); P (Stellaria media) herbicidal effect grade [5]: 3 (Herbicidal ratio of 40% or higher and lower than 70%); d (soybean) effect on crop grade [6]: 3 (Herbicidal ratio of 40% or higher and lower than 70%); e (wheat) effect on crop grade [7]: 5 (Herbicidal ratio of 90% or more (almost completely withered)); g (rapeseed) effect on crop grade [8]: 4 (Herbicidal ratio of 70% or higher and lower than 90%) |
| CC#Cc1cc(C)c(C2=C(OC(=O)COc3ccccc3)CC(CC(=NOC)C(C)C)C2=O)c(C)c1 (stereo not shown) [9-003] | 5 (Herbicidal ratio of 90% or more (almost completely withered)) | 4 (Herbicidal ratio of 70% or higher and lower than 90%) | 5 (Herbicidal ratio of 90% or more (almost completely withered)) | 5 (Herbicidal ratio of 90% or more (almost completely withered)) | 5 (Herbicidal ratio of 90% or more (almost completely withered)) | 3 (Herbicidal ratio of 40% or higher and lower than 70%) | 3 (Herbicidal ratio of 40% or higher and lower than 70%) | 5 (Herbicidal ratio of 90% or more (almost completely withered)) | 5 (Herbicidal ratio of 90% or more (almost completely withered)) | H (Echinochloa crus-galli var. crus-galli) herbicidal effect grade ([1]; Table 24): 5 (Herbicidal ratio of 90% or more (almost completely withered)); b (directly sowed rice plant) effect on crop grade ([2]; Table 24): 5 (Herbicidal ratio of 90% or more (almost completely withered)); Herbicidal effect grade, G: Setaria viridis [3]: 5 (Herbicidal ratio of 90% or more (almost completely withered)); Herbicidal effect grade, L: Apera spica-venti [4]: 5 (Herbicidal ratio of 90% or more (almost completely withered)); Herbicidal effect grade, P: Stellaria media [5]: 0 (Herbicidal ratio of 5% or lower (almost no effect)); Effect on crop grade, d: soybean [6]: 0 (Herbicidal ratio of 5% or lower (almost no effect)); Effect on crop grade, e: wheat [7]: 4 (Herbicidal ratio of 70% or higher and lower than 90%); Effect on crop grade, g: rapeseed [8]: 5 (Herbicidal ratio of 90% or more (almost completely withered)) |
